Assay: xn = mol fraction of the nth substance listed
Settings: 303.15 K, 100 kPa, Liquid; for viscosity: Capillary tube (Ostwald / Ubbelohde) method; for excess molar volume: Direct dilatometry; for speed of sound: Frequency=3 MHz, Sing-around technique in a fixed-path interferometer; for mass density: Pycnometric method

Cc1ccccc1Cl [2-chlorotoluene] + CC(=O)N(C)C
Settings | excess molar volume [m3/mol] | mass density [kg/m3] | speed of sound [m/s] | viscosity [mPa·s]
x2 = 0.1 | – | 1059.98 | 1305 | –
x2 = 0.106 | -2e-08 | – | – | 0.884
x2 = 0.1231 | -2.2e-08 | – | – | 0.883
x2 = 0.1527 | – | 1053.19 | 1316 | –
x2 = 0.1854 | -3e-08 | – | – | 0.882
x2 = 0.1862 | – | 1048.87 | 1322 | –
x2 = 0.2241 | -3.5e-08 | 1043.95 | 1330 | 0.881
x2 = 0.2585 | – | 1039.48 | 1337 | –
x2 = 0.2672 | -3.9e-08 | – | – | 0.88
x2 = 0.3057 | -4.3e-08 | – | – | 0.879
x2 = 0.3232 | – | 1031.07 | 1350 | –
x2 = 0.3545 | – | 1026.99 | 1356 | –
x2 = 0.3762 | -4.9e-08 | – | – | 0.878
x2 = 0.4095 | -5.1e-08 | – | – | 0.877
x2 = 0.4673 | – | 1012.24 | 1378 | –
x2 = 0.503 | – | 1007.54 | 1384 | –
x2 = 0.5255 | -5.5e-08 | – | – | 0.876
x2 = 0.5483 | – | 1001.55 | 1391 | –
x2 = 0.561 | -5.5e-08 | – | – | 0.875
x2 = 0.6052 | -5.2e-08 | – | – | 0.874
x2 = 0.6722 | – | 985.14 | 1407 | –
x2 = 0.7214 | -4.2e-08 | – | – | 0.873
x2 = 0.7275 | – | 977.79 | 1415 | –
x2 = 0.7625 | – | 973.13 | 1416 | –
x2 = 0.7712 | -3.6e-08 | – | – | 0.872
x2 = 0.8021 | -3.2e-08 | – | – | 0.871
x2 = 0.8525 | – | 961.13 | 1428 | –
x2 = 0.8795 | -2.3e-08 | – | – | 0.869

Clc1ccc(Cl)c(Cl)c1 [1,2,4-trichlorobenzene] + CC(=O)N(C)C
Settings | excess molar volume [m3/mol] | mass density [kg/m3] | speed of sound [m/s] | viscosity [mPa·s]
x2 = 0.0697 | – | 1407.11 | 1289 | –
x2 = 0.0921 | 2.1e-08 | – | – | 1.608
x2 = 0.1026 | – | 1390.55 | 1299 | –
x2 = 0.1341 | 3.1e-08 | – | – | 1.578
x2 = 0.1407 | – | 1371.4 | 1308 | –
x2 = 0.1758 | – | 1353.78 | 1316 | –
x2 = 0.1815 | 4.3e-08 | – | – | 1.523
x2 = 0.2103 | – | 1336.46 | 1325 | –
x2 = 0.2241 | 5.2e-08 | – | – | 1.474
x2 = 0.2601 | – | 1311.41 | 1336 | –
x2 = 0.265 | 6.1e-08 | – | – | 1.445
x2 = 0.3225 | 7.4e-08 | – | – | 1.403
x2 = 0.3592 | – | 1261.63 | 1354 | –
x2 = 0.4015 | – | 1240.42 | 1365 | –
x2 = 0.4257 | – | 1228.27 | 1368 | –
x2 = 0.4315 | 9.5e-08 | – | – | 1.383
x2 = 0.476 | 9.9e-08 | – | – | 1.353
x2 = 0.4786 | – | 1201.84 | 1378 | –
x2 = 0.501 | 1e-07 | – | – | 1.284
x2 = 0.5539 | – | 1164.24 | 1391 | –
x2 = 0.5542 | 9.7e-08 | – | – | 1.292
x2 = 0.6271 | 8.8e-08 | – | – | 1.205
x2 = 0.6383 | – | 1122.13 | 1405 | –
x2 = 0.705 | 7.3e-08 | – | – | 1.197
x2 = 0.7344 | – | 1074.16 | 1419 | –
x2 = 0.7519 | – | 1065.39 | 1420 | –
x2 = 0.7892 | 5.5e-08 | – | – | 1.152
x2 = 0.8041 | 5.2e-08 | – | – | 1.096
x2 = 0.9052 | – | 988.77 | 1440 | –
x2 = 0.9282 | 2.2e-08 | – | – | 1.088

Clc1ccccc1Cl [1,2-dichlorobenzene] + CC(=O)N(C)C
Settings | excess molar volume [m3/mol] | mass density [kg/m3] | speed of sound [m/s] | viscosity [mPa·s]
x2 = 0.0664 | – | 1275.7 | 1263 | –
x2 = 0.0805 | -3.6e-08 | – | – | 1.294
x2 = 0.1017 | – | 1263.13 | 1276 | –
x2 = 0.1224 | -5e-08 | – | – | 1.29
x2 = 0.1344 | – | 1251.49 | 1284 | –
x2 = 0.1605 | -6e-08 | – | – | 1.283
x2 = 0.1841 | – | 1233.77 | 1298 | –
x2 = 0.2175 | -7.5e-08 | – | – | 1.277
x2 = 0.2229 | – | 1219.92 | 1307 | –
x2 = 0.2611 | -8.4e-08 | – | – | 1.276
x2 = 0.2821 | – | 1198.76 | 1319 | –
x2 = 0.3261 | -9.1e-08 | – | – | 1.261
x2 = 0.4095 | – | 1152.99 | 1344 | –
x2 = 0.4319 | -9.2e-08 | – | – | 1.253
x2 = 0.4585 | – | 1135.37 | 1353 | –
x2 = 0.4607 | -8.8e-08 | – | – | 1.24
x2 = 0.5105 | -8.1e-08 | – | – | 1.232
x2 = 0.5742 | – | 1093.68 | 1377 | –
x2 = 0.6242 | -5.5e-08 | – | – | 1.225
x2 = 0.6565 | – | 1064.03 | 1393 | –
x2 = 0.7019 | -3.4e-08 | – | – | 1.218
x2 = 0.7168 | – | 1042.36 | 1402 | –
x2 = 0.7571 | -1.8e-08 | – | – | 1.211
x2 = 0.7764 | – | 1020.96 | 1413 | –
x2 = 0.8105 | -5e-09 | – | – | 1.201
x2 = 0.822 | – | 1004.63 | 1419 | –
x2 = 0.8505 | 2e-09 | – | – | 1.112
x2 = 0.9177 | – | 970.54 | 1435 | –
x2 = 0.9321 | 7e-09 | – | – | 0.908

Clc1cccc(Cl)c1 [1,3-dichlorobenzene] + CC(=O)N(C)C
Settings | excess molar volume [m3/mol] | mass density [kg/m3] | speed of sound [m/s] | viscosity [mPa·s]
x2 = 0.0879 | – | 1248.69 | 1277 | –
x2 = 0.1045 | -3e-08 | – | – | 1.024
x2 = 0.1294 | – | 1235.21 | 1284 | –
x2 = 0.1525 | -4.5e-08 | – | – | 1.023
x2 = 0.1659 | – | 1223.28 | 1290 | –
x2 = 0.1941 | -5.4e-08 | – | – | 1.022
x2 = 0.2267 | – | 1203.33 | 1301 | –
x2 = 0.262 | -6.7e-08 | – | – | 1.021
x2 = 0.2831 | – | 1184.73 | 1312 | –
x2 = 0.3235 | -7.5e-08 | – | – | 1.02
x2 = 0.3601 | – | 1159.16 | 1326 | –
x2 = 0.4052 | -7.7e-08 | – | – | 1.019
x2 = 0.42 | – | 1139.1 | 1337 | –
x2 = 0.4672 | -7.3e-08 | – | – | 1.018
x2 = 0.4742 | – | 1120.88 | 1347 | –
x2 = 0.522 | -6.6e-08 | – | – | 1.017
x2 = 0.6086 | – | 1075.37 | 1372 | –
x2 = 0.6531 | -4e-08 | – | – | 1.016
x2 = 0.6847 | – | 1049.44 | 1385 | –
x2 = 0.7245 | -2.5e-08 | – | – | 1.015
x2 = 0.7295 | – | 1034.11 | 1393 | –
x2 = 0.7656 | -1.4e-08 | – | – | 1.014
x2 = 0.7721 | – | 1019.55 | 1400 | –
x2 = 0.804 | -7e-09 | – | – | 1.013
x2 = 0.8389 | – | 996.66 | 1413 | –
x2 = 0.8631 | 2e-09 | – | – | 1.011
x2 = 0.8967 | – | 969.13 | 1429 | –
x2 = 0.9131 | – | – | – | 1.007
x2 = 0.969 | – | 945.84 | 1437 | –
x2 = 0.9743 | – | – | – | 0.952

Cc1ccccc1[N+](=O)[O-] [2-nitrotoluene] + CC(=O)N(C)C
Settings | excess molar volume [m3/mol] | mass density [kg/m3] | speed of sound [m/s] | viscosity [mPa·s]
x2 = 0.0824 | – | 1135.81 | 2046 | –
x2 = 0.1025 | 1.4e-08 | – | – | 1.905
x2 = 0.124 | – | 1126.98 | 2006 | –
x2 = 0.1501 | – | 1121.45 | 1978 | –
x2 = 0.1527 | 2e-08 | – | – | 1.877
x2 = 0.1784 | – | 1115.46 | 1956 | –
x2 = 0.1835 | 2.5e-08 | – | – | 1.857
x2 = 0.2165 | 2.8e-08 | – | – | 1.835
x2 = 0.2318 | – | 1104.13 | 1897 | –
x2 = 0.2579 | – | 1098.58 | 1874 | –
x2 = 0.2775 | 3.5e-08 | – | – | 1.788
x2 = 0.3067 | 4e-08 | – | – | 1.763
x2 = 0.3103 | – | 1087.46 | 1817 | –
x2 = 0.3637 | – | 1076.12 | 1773 | –
x2 = 0.3641 | 4.7e-08 | – | – | 1.715
x2 = 0.4133 | – | 1065.58 | 1734 | –
x2 = 0.4211 | 5.3e-08 | – | – | 1.663
x2 = 0.466 | – | 1054.4 | 1696 | –
x2 = 0.4727 | 5.8e-08 | – | – | 1.613
x2 = 0.5262 | 6e-08 | – | – | 1.559
x2 = 0.5465 | – | 1037.36 | 1650 | –
x2 = 0.6053 | 5.8e-08 | – | – | 1.474
x2 = 0.6694 | – | 1011.4 | 1592 | –
x2 = 0.7204 | 4.5e-08 | – | – | 1.336
x2 = 0.7773 | – | 988.58 | 1547 | –
x2 = 0.8162 | 3.2e-08 | – | – | 1.203
x2 = 0.8701 | – | 968.9 | 1506 | –
x2 = 0.895 | 2e-08 | – | – | 1.074
x2 = 0.9584 | – | 950.18 | 1463 | –
x2 = 0.967 | 7e-09 | – | – | 0.937
